Counter-ions that a name gives are not always drawn.

The target in one experiment is T1, GPR6 receptor (Homo sapiens, UniProt P46095).
T1 construct: expressed in transfected cells
T1 sequence (P46095 whole entry): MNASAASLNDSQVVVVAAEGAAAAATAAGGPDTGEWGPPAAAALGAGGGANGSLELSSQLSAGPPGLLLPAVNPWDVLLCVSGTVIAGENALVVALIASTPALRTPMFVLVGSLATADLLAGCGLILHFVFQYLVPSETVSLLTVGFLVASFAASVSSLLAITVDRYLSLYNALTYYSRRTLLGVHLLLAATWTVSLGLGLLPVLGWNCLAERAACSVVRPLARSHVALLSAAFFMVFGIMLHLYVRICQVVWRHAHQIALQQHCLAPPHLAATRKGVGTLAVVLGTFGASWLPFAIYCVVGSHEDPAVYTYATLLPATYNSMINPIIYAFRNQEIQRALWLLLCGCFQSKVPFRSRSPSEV
The experiment is described as follows: Inhibition of cAMP Activity of GPR6 In Vitro Assay (CHO-K1 cells, HTRF cAMP). The format is cell-based. The conditions noted are these: compounds of Compound Table 1; inhibition of constitutive cAMP activity of GPR6 expressed in CHO-K1 cells; approximate IC50; read-out: IC50. In outline:
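CHO-K1 cells with doxycycline-induced (1 μg/ml, 20 h) GPR6 treated with compounds 45 min at 37 °C in Ringer's buffer (pH 7.4) with 0.5% fatty acid free BSA. Constitutive cAMP measured by Lance HTRF Ultra cAMP; IC50 from four-parameter logistic fit.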
Background: TR-FRET usually uses a lanthanide donor and a delayed reading to cut background.
For orientation: IC50 means the point on the concentration scale where inhibition reaches its midpoint. For the molecule “N-cyclopropyl-3-(4-(4-fluorobenzyl)piperidin-1-yl)pyrido[3,4-b]pyrazin-2-amine, 2,2,2-trifluoroacetic acid salt [Cpd 421]”, the IC50 was found to be 8390 nM.
On the same count and under the same terms, with “2-((2,2-difluoroethyl)amino)-3-(4-(2,4-difluorophenoxy)piperidin-1-yl)pyrido[3,4-b]pyrazine-7-carbonitrile, 2,2,2-trifluoroacetic acid salt [Cpd 646]” the figure was 538 nM.
Same read-out and setting: with `CS(=O)(=O)c1ccc(C(=O)N2CCN(c3nc4ccccc4nc3NC3CC3)CC2)c(Cl)c1` [Cpd 67, (2-chloro-4-(methylsulfonyl)phenyl)(4-(3-(cyclopropylamino)quinoxalin-2-yl)piperazin-1-yl)methanone] the figure was 1030 nM; with “(S)—N-cyclopropyl-3-(4-((2,4-difluorophenyl)fluoromethyl)piperidin-1-yl)-5-methylpyrido[3,4-b]pyrazin-2-amine, 2,2,2-trifluoroacetic acid salt [Cpd 516]”, 29 nM; with “2-(cyclopropylamino)-3-(4-(2,4-difluorophenoxy)piperidin-1-yl)-N,N-dimethylpyrido[3,4-b]pyrazine-7-carboxamide [Cpd 597]”, 89 nM.
On the same count and under the same terms, next, “N-cyclopropyl-3-(4-(2,5-dichlorobenzyl)piperazin-1-yl)pyrido[3,4-b]pyrazin-2-amine, 2,2,2-trifluoroacetic acid salt [Cpd 134]”: 1640 nM.
For “(S)-(2-(cyclopropylamino)-3-(4-((2,4-difluorophenyl)fluoromethyl)piperidin-1-yl)pyrido[3,4-b]pyrazin-7-yl)(morpholino)methanone, 2,2,2-trifluoroacetic acid salt [Cpd 579]”, the IC50 came out at 10 nM.
With “3-(4-((4-(tert-butyl)phenyl)sulfonyl)piperazin-1-yl)-2-(cyclopropylamino)quinoxaline-6-carbonitrile, 2,2,2-trifluoroacetic acid salt [Cpd 280]”, the half-maximal inhibitory concentration (IC50) is 450 nM.
On the same count and under the same terms, with `COc1ccc(C(=O)N2CCN(c3nc4ccccc4nc3NC3CC3)CC2)cc1Cl` [Cpd 9, (3-chloro-4-methoxyphenyl)(4-(3-(cyclopropylamino)quinoxalin-2-yl)piperazin-1-yl)methanone, 2,2,2-trifluoroacetic acid salt] the figure was 10100 nM; with `COc1ccc(Nc2nc3ccccc3nc2N2CCN(Cc3cccc(Cl)c3)CC2)cc1` [Cpd 31, 3-(4-(3-chlorobenzyl)piperazin-1-yl)-N-(4-methoxyphenyl)quinoxalin-2-amine, 2,2,2-trifluoroacetic acid salt], 6140 nM; with “8-bromo-N-cyclopropyl-3-(4-(2,5-dichlorobenzyl)piperazin-1-yl)quinoxalin-2-amine, 2,2,2-trifluoroacetic acid salt [Cpd 133]”, 32 nM.
Still for that read-out and setting: next, “N-cyclopropyl-3-(4-(4-methoxyphenoxy)piperidin-1-yl)pyrido[3,4-b]pyrazin-2-amine [Cpd 552]”: 24 nM.
Consider “(R)-azetidin-1-yl(2-(cyclopropylamino)-3-(4-((2,4-difluorophenyl)fluoromethyl)piperidin-1-yl)pyrido[3,4-b]pyrazin-7-yl)methanone [Cpd 589]”, for which the IC50 worked out at 69 nM.
Take “(R)-2-(cyclopropylamino)-3-(4-((2,4-difluorophenyl)fluoromethyl)piperidin-1-yl)-N,N-dimethylpyrido[3,4-b]pyrazine-7-carboxamide, 2,2,2-trifluoroacetic acid salt [Cpd 578]”: the IC50 stood at 7210 nM.
On the same count and under the same terms, next, “2-(cyclopropylamino)-3-(4-tosylpiperazin-1-yl)quinoxaline-6-carbonitrile [Cpd 240]”: 4590 nM.

The same experiment, now with this note: compounds of Compound Table 2; inhibition of constitutive cAMP activity of GPR6 expressed in CHO-K1 cells; approximate IC50; read-out: IC50.
With `CC(C)C1CN(c2nc3ccccc3nc2NC2CC2)CCN1Cc1cc(Cl)ccc1Cl` (stereo not shown) [Compound Table 2: Cpd 9, N-cyclopropyl-3-(4-(2,5-dichlorobenzyl)-3-isopropylpiperazin-1-yl)quinoxalin-2-amine], the IC50 was 17700 nM.
